“And” between values parts separate entries of the source, which are not always exact repeats. Identical values can stand only once.
Key:
[1] = system: neuronal-type nicotinic receptors; conditions: cited from earlier work
[2] = system: neuronal-type nicotinic receptors; assay type: cell-based, bovine

Row | SMILES | effect on nicotine-stimulated release of adrenaline and noradrenaline (in words) [1] | Adrenaline Release 1st [2] | Adrenaline Release 2nd [2] | Adrenaline Release 3rd [2] | Adrenaline Release 4th [2] | Adrenaline Release % control [2] | Adrenaline Release mean [2] | Noradrenaline Release 1st [2] | Noradrenaline Release 2nd [2] | Noradrenaline Release 3rd [2] | Noradrenaline Release 4th [2] | Noradrenaline Release % control [2] | Noradrenaline Release mean [2]
1 | C[C@@H]1NC(=O)[C@@H]2CSC3(SC[C@@H](C(N)=O)NC(=O)[C@H](CCCNC(=N)N)NC(=O)[C@H](Cc4cc5ccccc5[nH]4)NC1=O)SC[C@H](NC(=O)CN)C(=O)N[C@@H](CS3)C(=O)N[C@@H](CO)C(=O)N[C@@H](CC(=O)O)C(=O)N1CCCC1C(=O)N[C@@H](CCCNC(=N)N)C(=O)N2 (stereo partly drawn) [Ctx ImI, α-conotoxin ImI] | inhibit the nicotine-stimulated release | – | – | – | – | – | – | – | – | – | – | – | –
2 | C[C@@H]1NC(=O)[C@@H]2CCCC[C@H](NC(=O)CN)C(=O)N[C@@H](CSSC[C@@H](C(N)=O)NC(=O)[C@H](CCCNC(=N)N)NC(=O)[C@H](Cc3cc4ccccc4[nH]3)NC1=O)C(=O)N[C@@H](CO)C(=O)N[C@@H](CC(=O)O)C(=O)N1CCCC1C(=O)N[C@@H](CCCNC(=N)N)C(=O)N2 (stereo partly drawn) [compound 118, [2,8]-Dicarba-[3,12]-Cystino Conotoxin ImI: NH2-Gly-c[Hag-Cys-Ser-Asp-Pro-Arg-Hag]-Ala-Trp-Arg-Cys)-NH2] | – | 2.94% and 2.55% | 4.40% and 3.63% | 4.46% and 2.62% | 4.09% and 3.31% | 88.260% and 65.306% | 3.97% and 3.03% | 4.52% and 4.19% | 6.29% and 5.86% | 7.00% and 4.32% | 7.34% and 5.51% | 90.859% and 69.384% | 6.29% and 4.97%
